In paper PMC7072484 (Biomolecules, 2020) one finds IC50 data, which are given here for eleven molecules.

Read-outs that look alike come from different tables or passages of the source.

The target of data set [1] is T1, CYP2B6 (Homo sapiens, UniProt P20813).
T1 construct: native enzyme in pooled human liver microsomes (200 donors, male and female; Sekisui XenoTech), isoform-selective P450-Glo CYP2B6 kit
T1 sequence (P20813 1-491): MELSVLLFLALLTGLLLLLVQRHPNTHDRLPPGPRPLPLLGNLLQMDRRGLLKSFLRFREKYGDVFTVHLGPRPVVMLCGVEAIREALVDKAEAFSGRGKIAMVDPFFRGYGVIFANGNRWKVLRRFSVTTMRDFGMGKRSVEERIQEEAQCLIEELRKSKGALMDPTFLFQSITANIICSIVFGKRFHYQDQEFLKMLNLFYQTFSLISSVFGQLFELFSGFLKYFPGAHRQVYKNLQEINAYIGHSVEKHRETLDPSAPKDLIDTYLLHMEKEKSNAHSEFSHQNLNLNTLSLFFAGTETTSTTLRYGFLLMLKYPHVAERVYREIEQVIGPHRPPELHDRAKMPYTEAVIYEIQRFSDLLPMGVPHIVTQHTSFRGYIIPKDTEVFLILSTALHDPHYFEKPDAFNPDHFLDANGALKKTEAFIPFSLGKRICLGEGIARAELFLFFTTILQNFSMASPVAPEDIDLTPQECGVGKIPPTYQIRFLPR
Kind of data set: P450-Glo luminescence inhibition assay. It counts as biochemical.

In data set [2] the target is T2, CYP3A4 (Homo sapiens, UniProt P08684).
T2 construct: native enzyme in pooled human liver microsomes (200 donors, male and female; Sekisui XenoTech), isoform-selective P450-Glo CYP3A4 kit
T2 sequence (P08684 2-503): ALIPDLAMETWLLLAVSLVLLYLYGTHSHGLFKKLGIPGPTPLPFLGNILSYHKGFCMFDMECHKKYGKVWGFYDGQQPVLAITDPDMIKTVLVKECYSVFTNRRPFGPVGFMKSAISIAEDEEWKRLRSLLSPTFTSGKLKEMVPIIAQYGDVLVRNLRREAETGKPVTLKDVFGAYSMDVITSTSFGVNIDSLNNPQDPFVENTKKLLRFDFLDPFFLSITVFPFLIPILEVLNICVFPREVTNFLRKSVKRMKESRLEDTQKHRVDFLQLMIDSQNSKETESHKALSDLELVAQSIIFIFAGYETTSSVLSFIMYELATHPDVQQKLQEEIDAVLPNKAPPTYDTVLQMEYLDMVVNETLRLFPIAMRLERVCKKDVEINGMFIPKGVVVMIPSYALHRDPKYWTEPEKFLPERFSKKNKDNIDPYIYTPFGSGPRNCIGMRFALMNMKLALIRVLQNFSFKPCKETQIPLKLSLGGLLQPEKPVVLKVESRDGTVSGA
As to the kind of experiment: P450-Glo luminescence inhibition assay. Format: biochemical.

The IC50 is the concentration that inhibits the measured activity by half. `COc1cc2oc(-c3ccc(O)c(O)c3)c(OC)c(=O)c2c(O)c1OC` [Chrysosplenol-D]: the results for the half-inhibitory concentration (IC50) in data set [1] and in data set [2] (read-out: CYP3A4 IC50) were 52.1 µM and 23 µM, respectively. In the case of `COc1cc(-c2oc3cc(OC)c(OC)c(O)c3c(=O)c2OC)ccc1O` [Chrysosplenetin], the IC50 in data set [1] worked out at 74.7 µM; in data set [2] (read-out: CYP3A4 IC50), 21.7 µM.

On to `O=C(/C=C/c1ccc(O)c(O)c1)O[C@@H]1C[C@](O)(C(=O)O)C[C@@H](O)[C@H]1O` [Chlorogenic Acid], for which the IC50 in data set [1] and in data set [2] (read-out: CYP2B6 IC50) was more than 600 µM in each case. `COc1cc2ccc(=O)oc2cc1O` [Scopoletin]: in data set [1], the IC50 was more than 600 µM. Take `CC1(C)[C@H]2CC[C@]1(C)C(=O)C2` [Camphor (-)]: the IC50 was 142 µM in data set [1] and more than 600 µM in data set [2] (read-out: CYP3A4 IC50).

As for `O=c1c(O)c(-c2ccc(O)cc2)oc2cc(O)cc(O)c12` [Kaempferol], the IC50 is more than 600 µM in data set [1] and 33.8 µM in data set [2] (read-out: CYP3A4 IC50).

In the case of `C[C@@H]1CC[C@H]2[C@@H](C)C(=O)O[C@@H]3O[C@@]4(C)CC[C@@H]1[C@]32O4` [Deoxyartemisinin], the IC50 in data set [1] is 111 µM; in data set [2] (read-out: CYP3A4 IC50), more than 600 µM. `O=c1c(O)c(-c2ccc(O)c(O)c2)oc2cc(O)cc(O)c12` [Quercetin]: the IC50 in data set [1] came out at 19.9 µM; in data set [2] (read-out: CYP3A4 IC50), 4.59 µM. Regarding `C=C1C(=O)O[C@@]23[C@H]1CC[C@@H](C)[C@@H]2CC[C@@]1(C)O[C@@H]31` [Arteannuin B], the results for the 50% inhibitory concentration (IC50) in data set [1] and in data set [2] (read-out: CYP3A4 IC50) were 9.36 µM and 12.3 µM, respectively. Consider `CC1(C)[C@@H]2CC[C@@]1(C)C(=O)C2` [Camphor (+)], for which the half-maximal inhibitory concentration (IC50) is 119 µM in data set [1] and more than 600 µM in data set [2] (read-out: CYP3A4 IC50). Turning to `C=C(C(=O)O)[C@@H]1CC[C@@H](C)[C@@H]2CCC(C)=C[C@@H]21` [Artemisinic Acid], the half-maximal inhibitory concentration (IC50) in data set [1] was 123 µM; in data set [2] (read-out: CYP3A4 IC50), 240 µM.
